Read-outs that look alike come from different tables or passages of the source.
Experiments:
[1] = Solubility determination in aqueous media; settings: for solubility: phosphate buffer, pH 7.4, aqueous buffer, thermodynamic from solid
Protocol: Reagents used included 0.1 N HCl, J T Baker Lot G08515; and 50 mM Phosphate pH 7.4, μ=0.155 w/NaCl, NB93214-089, Equipment/Instruments used included balance: Mettler Toledo, UMX2, LC805269; Rainin Pipette; 1000 μL RF09683 μL, 200 μL, RF20783; water bath: Vankel, LC 954896, set at 25° C. and 25 RPM, Thermometer: TB085699); and water bath: Vankel, LC 127535, set at 37° C. and 25 RPM, Thermometer: TB096544).
Examples were tested in aqueous media at 25° C. or 37° C. Excess amount of the bulk drug was weighed out and mixed with an aliquot of target media in a clear glass vial. The vial was sealed with cap and wrapped with aluminum foil, then tumbled in a 25° C. or 37° C. water bath as appropriate. When equilibration was completed, she samples were removed from the water bath and the final pH's were measured. The suspensions were filtered through 4 mm, 0.2 μm Millex-LG syringe filters (hydrophilic PTFE membrane, Millipore, Lot N9JN70696). Each filter was used only for one sample and the first three droplets were discarded. The filtrate was assayed after appropriate dilution with the same solvent as used for stock solution. Three replicates were prepared. The concentration of the sample was calculated against the calibration curve for the compound.

[2] = tested on: RS4;11 cells; test: RS4;11 cell viability assay (CellTiter Glo); type: cell-based; settings: acute lymphoblastic leukemia cell line RS4;11, 10% human serum, 48 hours
From the text: The acute lymphoblastic leukemia (ALL) cell line RS4;11 was used as the primary human cell line to assess the cellular activity of Bcl-2 selective agents in vitro and their efficacy in vivo. Previous studies have shown by BH3 profiling, a mitochondrial assay that classifies blocks in the intrinsic apoptotic pathway, that RS4;11 cells were highly dependant on BCL-2 for survival and sensitive to the Bcl-2 family member inhibitor ABT-737 (Blood, 2008, Vol. III, 2300-2309).
RS4;11 cells were cultured in RPMI-1640 supplemented with 2 mM L-glutamine, 10% FBS, 1 mM sodium pyruvate, 2 mM HEPES, 1% penicillin/streptomycin (Invitrogen), 4.5 g/L glucose and maintained at 37 C containing 5% CO2. To test for the cellular activity of compounds in vitro, cells were treated at 50,000 cells per well in 96-well microliter plates in the presence of 10% human serum for 48 hours in a humidified chamber with 5% CO2. Cell cytotoxicity EC50 values were assessed using CellTiter Glo (Promega) according to the manufacturers recommendations. The EC50 values were determined as a percentage of viable cells following treatment compared to the untreated control cells.

[3] = biological target: GST-Bcl-2 (Homo sapiens (Human), UniProt P10415); test: Time Resolved-Fluorescence Resonance Energy Transfer (TR-FRET) Bcl-2 binding assay; settings: F-Bak peptide probe 100 nM, GST-Bcl-2 1 nM, Tb-anti-GST 1 nM; Wang's equation
GST-Bcl-2, sequence (P10415 whole entry): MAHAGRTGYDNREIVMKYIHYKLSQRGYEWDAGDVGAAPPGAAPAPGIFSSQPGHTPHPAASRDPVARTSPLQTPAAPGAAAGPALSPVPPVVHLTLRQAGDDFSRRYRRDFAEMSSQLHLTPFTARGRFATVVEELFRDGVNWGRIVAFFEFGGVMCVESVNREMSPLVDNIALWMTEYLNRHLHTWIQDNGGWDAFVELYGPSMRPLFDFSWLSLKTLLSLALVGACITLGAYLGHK
Protocol: Determination of the utility of compounds having Formula (I) as binders to and inhibitors of anti-apoptotic Bcl-2 proteins was performed using the Time Resolved-Fluorescence Resonance Energy Transfer (TR-FRET) Assay. Tb-anti-GST antibody was purchased from Invitrogen (Catalog No. PV4216). Representative compounds were serially diluted in dimethyl sulfoxide (DMSO) starting at 50 μM (2× starting concentration; 10% DMSO) and 10 μL were transferred into a 384-well plate. […] For each assay, the probe/antibody and protein/probe/antibody were included on each assay plate as negative and positive controls, respectively. Fluorescence was measured on the ENVISION plate reader (Perkin Elmer) using a 340/35 nm excitation filter and 520/525 (F-Bak peptide) and 495/510 nm (Tb-labeled anti-Histidine antibody) emission filters. Inhibition constants (Ki) are shown in TABLE 2 below and were determined using Wang's equation (Wang Z.-X. An Exact Mathematical Expression For Describing Competitive Binding Of Two Different Ligands To A Protein Molecule. FEBS Lett. 1995, 360:111-4).

Compound | solubility [1] [µg/mL] | EC50 [2] [nM] | Aqueous Solubility (pH 7.4) [ug/mL] | Aqueous Solubility (pH 7.4) ([1]; 50 mM phosphate pH 7.4, 25° C. or 37° C.) [ug/mL] | Ki [3] [nM]
CC1(C)CCC(CN2CCN(c3ccc(C(=O)NS(=O)(=O)c4ccc(NCC5CCOCC5)c([N+](=O)[O-])c4)c(Oc4cnc5[nH]ccc5c4)c3)CC2)=C(c2ccc(Cl)cc2)C1 [Example 2B, 4-(4-{[2-(4-chlorophenyl)-4,4-dimethylcyclohex-1-en-1-yl]methyl}piperazin-1-yl)-N-({3-nitro-4-[(tetrahydro-2H-pyran-4-ylmethyl)amino]phenyl}sulfonyl)-2-(1H-pyrrolo[2,3-b]pyridin-5-yloxy)benzamide] | < 4 | – | – | – | –
CC1(C)CCC(CN2CCN(c3ccc(C(=O)NS(=O)(=O)c4ccc(OC[C@H]5CC[C@H](O)CC5)c([N+](=O)[O-])c4)c(Oc4cnc5[nH]ccc5c4)c3)CC2)=C(c2ccc(Cl)cc2)C1 [Example 7, Trans-4-(4-{[2-(4-chlorophenyl)-4,4-dimethylcyclohex-1-en-1-yl]methyl}piperazin-1-yl)-N-({4-[(4 hydroxycyclohexyl)methoxy]-3-nitrophenyl}sulfonyl)-2-(1H-pyrrolo[2,3-b]pyridin-5-yloxy)benzamide] | < 1 | – | – | – | –
(5-{5-(4-{[2-(4-chlorophenyl)-4,4-dimethylcyclohex-1-en-1-yl]methyl}piperazin-1-yl)-2-[({4-[(4-fluorotetrahydro-2H-pyran-4-yl)methoxy]-3-nitrophenyl}sulfonyl)carbamoyl]phenoxy}-7H-pyrrolo[2,3-b]pyridin-7-yl)methyl dihydrogen phosphate [Example 3] | – | 41 | >10850 | – | –
CO[C@H]1CC[C@H](CNc2ccc(S(=O)(=O)NC(=O)c3ccc(N4CCN(CC5=C(c6ccc(Cl)cc6)CC(C)(C)CC5)CC4)cc3Oc3cnc4[nH]ccc4c3)cc2[N+](=O)[O-])CC1 [Example 1M, Trans-4-(4-{[2-(4-chlorophenyl)-4,4-dimethylcyclohex-1-en-1-yl]methyl}piperazin-1-yl)-N-[(4-{[(4-methoxycyclohexyl)methyl]amino}-3-nitrophenyl)sulfonyl]-2-(1H-pyrrolo[2,3-b]pyridin-5-yloxy)benzamide] | < 1 | – | – | – | –
CO[C@H]1CC[C@H](CNc2ccc(S(=O)(=O)NC(=O)c3ccc(N4CCN(CC5=C(c6ccc(Cl)cc6)CC(C)(C)CC5)CC4)cc3Oc3cc4ccnc-4n(COP(=O)(O)O)c3)cc2[N+](=O)[O-])CC1 [Example 1, {5-[5-(4-{[2-(4-chlorophenyl)-4,4-dimethylcyclohex-1-en-1-yl]methyl}piperazin-1-yl)-2-{[(4-{[(trans-4-methoxycyclohexyl)methyl]amino}-3-nitrophenyl)sulfonyl]carbamoyl}phenoxy]-7H-pyrrolo[2,3-b]pyridin-7-yl}methyl dihydrogen phosphate] | – | 310 | – | >1159 | < 0.01
CC(C)(CO)CNc1ccc(S(=O)(=O)NC(=O)c2ccc(N3CCN(CC4=C(c5ccc(Cl)cc5)CC(C)(C)CC4)CC3)cc2Oc2cnc3[nH]ccc3c2)cc1[N+](=O)[O-] [Example 6, 4-(4-{[2-(4-chlorophenyl)-4,4-dimethylcyclohex-1-en-1-yl]methyl}piperazin-1-yl)-N-({4-[(3-hydroxy-2,2-dimethylpropyl)amino]-3-nitrophenyl}sulfonyl)-2-(1H-pyrrolo[2,3-b]pyridin-5-yloxy)benzamide] | < 1 | – | – | – | –
(5-{5-(4-{[2-(4-chlorophenyl)-4,4-dimethylcyclohex-1-en-1-yl]methyl}piperazin-1-yl)-2-[({3-nitro-4-[(tetrahydro-2H-pyran-4-ylmethyl)amino]phenyl}sulfonyl)carbamoyl]phenoxy}-7H-pyrrolo[2,3-b]pyridin-7-yl)methyl dihydrogen phosphate [Example 2] | – | 180 | >4820 | – | < 0.01
CC1(C)CCC(CN2CCN(c3ccc(C(=O)NS(=O)(=O)c4ccc(OCC5(F)CCOCC5)c([N+](=O)[O-])c4)c(Oc4cnc5[nH]ccc5c4)c3)CC2)=C(c2ccc(Cl)cc2)C1 [Example 3E, 4-(4-{[2-(4-chlorophenyl)-4,4-dimethylcyclohex-1-en-1-yl]methyl}piperazin-1-yl)-N-({4-[(4-fluorotetrahydro-2H-pyran-4-yl)methoxy]-3-nitrophenyl}sulfonyl)-2-(1H-pyrrolo[2,3-b]pyridin-5-yloxy)benzamide] | < 1 | – | – | – | –
3-[(4-{[4-(4-{[2-(4-chlorophenyl)-4,4-dimethylcyclohex-1-en-1-yl]methyl}piperazin-1-yl)-2-(1H-pyrrolo[2,3-b]pyridin-5-yloxy)benzoyl]sulfamoyl}-2-nitrophenyl)amino]-2,2-dimethylpropyl dihydrogen phosphate [Example 4] | – | > 1000 | 169 | – | < 0.01
trans-4-[(4-{[4-(4-{[2-(4-chlorophenyl)-4,4-dimethylcyclohex-1-en-1-yl]methyl}piperazin-1-yl)-2-(1H-pyrrolo[2,3-b]pyridin-5-yloxy)benzoyl]sulfamoyl}-2-nitrophenoxy)methyl]cyclohexyl dihydrogen phosphate [Example 5] | – | 42 | >6580 | – | –

Source: patent US9403822B2, “Apoptosis-inducing agents for the treatment of cancer and immune and autoimmune diseases” (AbbVie Inc., priority 2010, dated 2016)
